{"source": "ChEMBL document CHEMBL1151416", "about": "“Revised structure of phaeantharine” (1983)", "key": {"Bacillus subtilis": {"system": "Bacillus subtilis", "assay": "Antibacterial activity against Bacillus subtilis by agar-diffusion test", "assay_type": "functional"}, "Staphylococcus aureus": {"system": "Staphylococcus aureus", "assay": "Antibacterial activity against Staphylococcus aureus by agar-diffusion test", "assay_type": "functional"}}}
{"smiles": "COc1cc2cc[n+](C)c(Cc3ccc(Oc4cc(Cc5c6cc(OC)c(OC)cc6cc[n+]5C)ccc4OC)cc3)c2cc1OC", "note": "[PHAEANTHARINE]", "values": [{"measurement": "MIC", "setting": "Bacillus subtilis", "result": 74, "unit": "µg/mL"}, {"measurement": "MIC", "setting": "Staphylococcus aureus", "result": 86, "unit": "µg/mL"}]}
